From ChEMBL document CHEMBL1201862, “PubChem BioAssay data set” (2004)
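Values below derive from 48-hour exposures of cells grown in 96-well plates, with endpoints linearly interpolated between the two concentrations bracketing the appropriate inhibition level. At the GI50, growth is halved.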 The source made the active and inactive calls. Rule as the data show it: active = GI50 up to about 1.1 µM and inactive = higher.

Key:
Assay in all cases: NCI anticancer screen, dose series, 48 h
[1] = system: HCT-15
[2] = system: ACHN
[3] = system: SN12C
[4] = system: HL-60
[5] = system: RXF 393
[6] = system: HCC 2998
[7] = system: IGROV-1
[8] = system: DU-145
[9] = system: SNB-75
[10] = system: UACC-62
[11] = system: UACC-257
[12] = system: SK-MEL-2
[13] = system: UO-31
[14] = system: EKVX
[15] = system: CCRF-CEM
[16] = system: SF-539
[17] = system: BT-549
[18] = system: SW-620
[19] = system: PC-3
[20] = system: KM12
[21] = system: MCF7
[22] = system: COLO 205
[23] = system: HOP-62
[24] = system: K562
[25] = system: MDA-MB-231
[26] = system: SNB-19
[27] = system: A549
[28] = system: 786-0
[29] = system: SK-MEL-5
[30] = system: SK-OV-3
[31] = system: NCI-H460
[32] = system: Malme-3M
[33] = system: HT-29
[34] = system: HCT-116
[35] = system: NCI/ADR-RES
[36] = system: RPMI-8226
[37] = system: LOX IMVI
[38] = system: OVCAR-8
[39] = system: SF-268
[40] = system: MOLT-4
[41] = system: U-251
[42] = system: M14
[43] = system: A498
[44] = system: SF-295
[45] = system: NCI-H226
[46] = system: OVCAR-3
[47] = system: OVCAR-4
[48] = system: TK-10
[49] = system: OVCAR-5
[50] = system: SR
[51] = system: MDA-MB-435
[52] = system: Hs-578T
[53] = system: NCI-H23
[54] = system: CAKI-1
[55] = system: MDA-N
[56] = system: NCI-H522
[57] = system: SK-MEL-28
[58] = system: T47D

Measured: GI50

C[C@]12CC[C@H]3[C@@H](CCC4=CC(=O)CC[C@@]43C)[C@]1(O)CC[C@]2(O)C(=O)CO
> 100 µM: [1]
inactive: [2] > 100 µM | [3] > 100 µM | [4] > 100 µM | [5] > 100 µM | [6] > 100 µM | [7] > 100 µM | [8] > 100 µM | [9] > 100 µM | [10] > 100 µM | [11] > 100 µM | [12] > 100 µM | [13] > 100 µM | [14] > 100 µM | [15] > 100 µM | [16] > 100 µM | [17] > 100 µM | [18] > 100 µM | [19] > 100 µM | [20] > 100 µM | [21] > 100 µM | [22] > 100 µM | [23] > 100 µM | [24] > 100 µM | [25] > 100 µM | [26] > 100 µM | [27] > 100 µM | [28] > 100 µM | [29] > 100 µM | [30] > 100 µM | [31] > 100 µM | [32] > 100 µM | [33] > 100 µM | [34] > 100 µM | [35] > 100 µM | [36] > 100 µM | [37] > 100 µM | [38] > 100 µM | [39] > 100 µM | [40] > 100 µM | [41] > 100 µM | [42] > 100 µM | [43] > 100 µM | [44] > 100 µM | [45] > 100 µM | [46] > 100 µM | [47] > 100 µM | [48] > 100 µM | [49] > 100 µM | [50] > 100 µM | [51] > 100 µM | [52] > 100 µM | [53] > 100 µM | [54] > 100 µM | [55] > 100 µM | [56] > 100 µM | [57] > 100 µM | [58] > 100 µM
